Data from PubChem BioAssay (NCI).
“And” between values parts separate entries of the source, which are not always exact repeats. Equal entries are not always repeated.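 Step 1: Grow cells in 96-well plates. Step 2: Expose to compound for 48 hours at 5 concentrations. Step 3: Interpolate endpoints linearly; if unreached, use highest concentration. GI50 is the concentration that inhibits growth by half. Definition used: TGI = concentration required for complete inhibition of growth.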

Assays:
Assay in all cases: NCI anticancer screen, dose series, 48 h
A549 NSCLC = system: A549 NSCLC
DU-145 prostate = system: DU-145 prostate
NCI-H23 lung = system: NCI-H23 lung
HOP-62 NSCLC = system: HOP-62 NSCLC
OVCAR-8 ovarian = system: OVCAR-8 ovarian
T-47D breast = system: T-47D breast
SW-620 colon = system: SW-620 colon
LOX IMVI melanoma = system: LOX IMVI melanoma
COLO 205 colon = system: COLO 205 colon
SK-MEL-5 melanoma = system: SK-MEL-5 melanoma

Structure (SMILES)	GI50 (A549 NSCLC)	TGI (A549 NSCLC)	GI50 (DU-145 prostate)	TGI (DU-145 prostate)	GI50 (NCI-H23 lung)	TGI (NCI-H23 lung)	GI50 (HOP-62 NSCLC)	TGI (HOP-62 NSCLC)	GI50 (OVCAR-8 ovarian)	TGI (OVCAR-8 ovarian)	GI50 (T-47D breast)	TGI (T-47D breast)	GI50 (SW-620 colon)	TGI (SW-620 colon)	GI50 (LOX IMVI melanoma)	TGI (LOX IMVI melanoma)	GI50 (COLO 205 colon)	TGI (COLO 205 colon)	GI50 (SK-MEL-5 melanoma)	TGI (SK-MEL-5 melanoma)
CC1=C2C[C@H]3[C@@H](CC[C@@H]4CC(NS(C)(=O)=O)CC[C@@]43C)[C@@H]2CC[C@@]2(C1)O[C@@H]1C[C@H](C)CN[C@H]1[C@H]2C (stereo partly specified)	4.26 µM	17.5 µM	14.4 µM	28 µM	16.3 µM	33.2 µM	11.3 µM	24.8 µM	12 µM	25.7 µM	2.68 µM	7.51 µM	13.8 µM	28.9 µM	5.48 µM	16.3 µM	2.25 µM	4.43 µM	2.18 µM	5.63 µM
CCOC(=O)c1[nH]c(Br)c(-c2ccc(Br)cc2)c1Br	8.15 µM	29.8 µM	2.19 µM	55.8 µM	2.48 µM	6.94 µM and 14.3 µM	0.514 µM	4.74 µM and 2.81 µM		2.65 µM and 2.42 µM	2.66 µM	65.7 µM		14 µM	0.641 µM	5.29 µM and 12.4 µM		2.54 µM and 1.85 µM		19.1 µM
COC(=O)c1c2c(c(C)[n+]([O-])c1C)C(=O)C=C(NCc1ccc(F)c(Cl)c1)C2=O	0.352 µM	1.95 µM	0.566 µM	2.07 µM	0.412 µM	2.11 µM	0.718 µM	2.33 µM	0.155 µM	1.14 µM	0.0638 µM	1.35 µM	0.112 µM	1.32 µM	0.0258 µM	1.35 µM	0.245 µM	0.863 µM	0.164 µM	0.311 µM
CCOc1ccc(-c2nonc2NC(=O)c2cccc(C)c2)cc1OCC	> 100 µM	> 100 µM	> 100 µM	> 100 µM	35.8 µM	> 100 µM	> 100 µM	> 100 µM	> 100 µM	> 100 µM	> 100 µM	> 100 µM	> 100 µM	> 100 µM	> 100 µM	> 100 µM	> 100 µM	> 100 µM	> 100 µM	> 100 µM
O=c1nc2n(-c3ccc(Cl)cc3)c3ccc([N+](=O)[O-])cc3cc-2c(=O)[nH]1	30.4 µM	> 100 µM	29.1 µM	79.5 µM	17.7 µM	34 µM	6.01 µM	22.8 µM	33.2 µM	> 100 µM	18.3 µM	43.1 µM	6.11 µM	> 100 µM	4.87 µM	21.7 µM	13.2 µM	31.8 µM	18.6 µM	41.6 µM
C#CCC(Cc1cnc2nc(N)nc(N)c2n1)c1ccc(C(=O)N[C@@H](CCC(=O)O)C(=O)O)cc1 (stereo partly specified)	< 0.01 µM	> 100 µM	< 0.01 µM	> 100 µM	< 0.0174 µM	> 100 µM	< 0.01 µM	> 100 µM	< 0.01 µM	> 100 µM	> 100 µM	> 100 µM	< 0.01 µM	> 100 µM	< 0.01 µM	> 100 µM	< 0.0159 µM	> 100 µM	< 0.01 µM	> 100 µM
N#Cc1nc2c(S(=O)(=O)c3ccccc3)c(N)n(Cc3cccnc3)c2nc1C#N	> 100 µM	> 100 µM	24.7 µM	> 100 µM	40 µM	> 100 µM	17.4 µM	41.4 µM	10.9 µM	> 100 µM	5.8 µM	52.1 µM	> 100 µM	> 100 µM	25.8 µM	> 100 µM	> 100 µM	> 100 µM	> 100 µM	> 100 µM
COc1ccc(/C=C/C(=O)c2ccc(SC)cc2)cc1OC	15.8 µM	42.7 µM	13.4 µM	30.9 µM	2.82 µM	10.4 µM	18.8 µM	42.2 µM	16.5 µM	44 µM	37.2 µM	> 100 µM	4.44 µM	> 100 µM	4.12 µM	15.5 µM	21 µM	> 100 µM	14.5 µM	31.7 µM
O=C(c1ccco1)c1nc2cc(Cl)ccc2[n+]([O-])c1C(F)(F)F	63.3 µM	> 100 µM	76.5 µM	> 100 µM	42 µM	> 100 µM	76.7 µM	> 100 µM	57.1 µM	> 100 µM	27.5 µM	> 100 µM	39.1 µM	> 100 µM	48.4 µM	> 100 µM	> 100 µM	> 100 µM	20.3 µM	49.6 µM
COc1cc(-c2nn(-c3cccc(NC(=O)Nc4cc(C(F)(F)F)cc(C(F)(F)F)c4)c3)cc2-c2ccncc2)ccc1Cl	0.438 µM	2.8 µM	0.987 µM	5.59 µM	0.59 µM	3.94 µM	0.749 µM	1.55 µM	0.524 µM	3.98 µM	1.03 µM	26.7 µM	0.494 µM	2.94 µM	0.783 µM	1.52 µM	0.817 µM	1.6 µM	0.629 µM	1.3 µM
N[C@@H]1CCCC[C@H]1N.O=C([O-])C(=O)[O-].[Pt+4]	0.615 µM	> 84.1 µM	6.17 µM	> 100 µM	1.76 µM	15.2 µM	46.2 µM	> 100 µM	6 µM	> 100 µM	2.21 µM	> 100 µM	0.0468 µM	> 83.7 µM	1.13 µM	> 100 µM	7.73 µM	> 74.8 µM	1.14 µM	13.3 µM
CCOC(=O)N1CCc2cc(OC)c(OC)c3c2c1cc1cc(OC)c(OC)cc13		> 100 µM		> 100 µM		55.6 µM		> 83.6 µM		> 100 µM		> 60.2 µM		81.1 µM		52.3 µM		9.06 µM		32.9 µM
Nc1c(Br)cc(Br)c2c1[nH]c(=O)c1ccccc12	6.7 µM	> 100 µM	23.6 µM	> 100 µM	20.7 µM	> 100 µM	2.56 µM	6.39 µM	4.04 µM	26.5 µM	2.41 µM	17.5 µM	23.1 µM	> 100 µM	20.5 µM	> 100 µM	22.1 µM	> 100 µM	34 µM	> 100 µM
CC(C)[C@H](CO)Nc1nc(Nc2ccc(C(=O)NCCNS(=O)(=O)c3cccc4c(N(C)C)cccc34)c(Cl)c2)c2ncn(C(C)C)c2n1	2.91 µM	> 77.7 µM	4.41 µM	> 100 µM	3 µM	> 36.2 µM	3.69 µM	> 100 µM	3.18 µM	> 100 µM	2.93 µM	> 82.5 µM	2.56 µM	> 100 µM	2.71 µM	> 100 µM	1.76 µM	3.47 µM	2.07 µM	5.16 µM
Cc1ccc(-n2c3c(c4c(CN(C)C)c(O)ccc42)CCc2ccccc2C3=O)cc1	16.7 µM	33.8 µM	37.3 µM	> 100 µM	14.6 µM	29.6 µM	17.8 µM	40.9 µM	16.9 µM	41.8 µM	> 100 µM	> 100 µM	15.1 µM	33.7 µM	15.8 µM	29.5 µM	> 100 µM	> 100 µM	14.9 µM	28.9 µM
Ic1ccccc1-c1ccccc1	> 100 µM	> 100 µM	> 100 µM	> 100 µM	> 100 µM	> 100 µM	> 100 µM	> 100 µM	> 100 µM	> 100 µM	70.5 µM	> 100 µM	> 100 µM	> 100 µM	42.4 µM	> 100 µM	> 100 µM	> 100 µM	> 100 µM	> 100 µM
C/C(=N/Nc1nc2ccccc2n1C)c1ccccn1	0.106 µM	14.5 µM	0.141 µM	17.7 µM	0.0443 µM	19.3 µM	0.185 µM	4.49 µM	0.118 µM	16.2 µM	< 0.0144 µM	11.6 µM	0.0429 µM	21.8 µM	0.0514 µM	11.4 µM	0.0254 µM	10.9 µM	0.162 µM	3.96 µM
NC(N)=N/N=C\c1cccc(OCc2ccccc2)c1	9.2 µM	24.1 µM	11.4 µM	23.9 µM	11.7 µM	27.6 µM	5.16 µM	19.1 µM	6.58 µM	38.8 µM	1.55 µM	3.99 µM	1.68 µM	3.33 µM	1.78 µM	3.4 µM	1.78 µM	3.36 µM	1.66 µM	3.12 µM
